Laboratory results reported in ChEMBL document CHEMBL1139726, “Identification of novel inhibitors of UDP-Glc 4'-epimerase, a validated drug target for african sleeping sickness” (Bioorg Med Chem Lett, 2006).

How the values were obtained:
[1] = test system: Trypanosoma brucei; assay: Inhibition of Trypanosoma brucei GalE at 50 uM
[2] = molecular target: T1, UDP-glucose 4-epimerase (Homo sapiens, UniProt Q14376); assay: Inhibition of human GalE by HPAEC assay
T1 sequence (Q14376 whole entry): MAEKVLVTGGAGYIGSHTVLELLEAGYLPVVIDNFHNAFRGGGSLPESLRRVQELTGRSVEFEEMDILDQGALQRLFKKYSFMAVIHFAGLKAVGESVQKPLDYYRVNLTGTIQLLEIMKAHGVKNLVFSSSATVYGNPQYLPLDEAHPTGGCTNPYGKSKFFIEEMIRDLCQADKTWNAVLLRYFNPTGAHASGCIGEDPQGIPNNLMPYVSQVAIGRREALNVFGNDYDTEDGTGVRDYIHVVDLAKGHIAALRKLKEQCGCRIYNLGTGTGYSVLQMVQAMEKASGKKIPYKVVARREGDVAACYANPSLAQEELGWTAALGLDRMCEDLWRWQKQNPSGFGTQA

[3] = test system: Trypanosoma brucei; assay: Cytotoxicity against Trypanosoma brucei by Alamar blue assay; assay type: organism-based
[4] = test system: CHO-K1; assay: Cytotoxicity against CHO-K1 cells by Alamar blue assay; assay type: cell-based; details: Cricetulus griseus
[5] = Inhibition of Trypanosoma brucei GalE by HPAEC assay
[6] = Inhibition of Trypanosoma brucei GalE after 1 hr by HPAEC assay

Compound | inhibition [1] [%] | IC50 [2] [µM] | EC50 [3] [µM] | EC50 [4] [µM] | IC50 [5] [µM] | IC50 [6] [µM]
C=C(CC)C(=O)c1ccc(OCC(=O)O)c(Cl)c1Cl [ETHACRYNIC ACID] | > 75 | 14 | 3.3 | 56 | 3.1 | –
O=c1c2ccccc2[se]n1-c1ccccc1 [EBSELEN] | > 75 | 0.014 | 4.1 | 6.1 | 0.62 | –
O=C(NCCSSCCNC(=O)/C(Cc1ccc(O)c(Br)c1)=N/O)/C(Cc1ccc(O)c(Br)c1)=N/O [PSAMMAPLIN A] | > 75 | 3.6 | 2.6 | 0.9 | 15 | –
Clc1cc(Cl)c(OCC#CI)cc1Cl [HALOPROGIN] | > 75 | 0.5 | 0.3 | 0.6 | – | > 100
CC/C(=C(/CC)c1ccc(O)cc1)c1ccc(O)cc1 [DIETHYLSTILBESTROL] | > 75 | 75 | 2.8 | 8.5 | 17 | –
